Data set [1] concerns splenic NK, B and T cells. The data set is described as follows: Immunosuppression effects in mouse splenic natural killer (NK) cells. It counts as in vivo, Balb/C mice. The following applies: mice, three days; for treatment effect on B and T cell populations: PO BID. How it is done:
Adult male Balb/C mice (12-14 weeks of age) from Harlan were used for the study. […] Spleens were harvested 1 or 2 h post last dose and crushed immediately for cell subtype staining. Prior to fixation, fluorophore-labelled antibodies for CD19 (FITC; B cells), CD3e (PE; pan T cells) and DX5 (APC; NK cells) were incubated with splenocyte samples from each animal to allow for simultaneous, multiple subtype % analysis on the flow cytometer. The number of total spleen cells for each animal was measured by Scepter™ 2.0 Handheld Automated Cell Counter. The absolute number of lymphocyte subtype population (e.g., splenic B, T and NK cells) was calculated from the percentage of each subtype times total spleen cells for each animal. A one way ANOVA, with Dunnett's post hoc test, was used to compare the splenic lymphocytes number of the vehicle and test compound groups. The a level was set at p<0.05. Data were presented as the mean±SEM for each group.

Data set [2] in a line: Pharmacokinetics in plasma and the GI tract in rats. It counts as in vivo, Sprague Dawley rats. The following applies: oral dosing in preclinical species. How it is done:
Assay 6: Pharmacokinetics in Plasma and the GI Tract in Rats and Dogs A test compound was dosed to male Sprague Dawley rats (n=3) as described in Assay 5. […] At all time points, the plasma concentration was below the limit of quantitation of 0.001 μg/mL.

A short description of data set [3]: First in human study of safety, tolerability and pharmacokinetics in healthy subjects. It counts as in vivo. The following applies: by comparison to other orally administered compounds. How it is done:
Assay 9: First in Human Study to Evaluate the Safety, Tolerability and Pharmacokinetics in Healthy Subjects
The compound of Example 1 was evaluated in a double-blinded, randomized, placebo-controlled, single ascending dose (SAD) and multiple ascending dose (MAD) study of safety, tolerability, and pharmacokinetics in healthy subjects. Pharmacokinetic samples were collected up to 72 hours post the final dose in both the SAD study (after the first dose) and MAD study (after 14 days of once-daily dosing). The SAD study enrolled 5 cohorts and the MAD study enrolled 4 cohorts totaling 72 subjects, of which 71 completed the dosing period.
Plasma pharmacokinetic (PK) parameters were determined by non-compartmental analysis using WinNonLin Version 6.4.0 (Pharsight, St Louis, Mo.). The plasma PK parameter presented here is:
Cmax: Maximum Concentration in Plasma

For data set [4], the system named is oxazolone-induced colitis. Put plainly: Mouse model of oxazolone-induced colitis. It counts as in vivo, BALB/C mice. The following applies: mice. How it is done: Assay 7: Mouse Model of Oxazalone-Induced Colitis
Oxazolone-induced colitis is an experimental model that has a histological resemblance to human ulcerative colitis (Heller et al. Immunology, 2002, 17, 629-638). Adult BALB/C mice from Harlan were used in the assay. On day 1, animals were lightly anesthetized with isoflurane and the hairs between the shoulder were carefully removed before oxazolone (4%, 150 μL, 4:1 acetone:olive oil formulation) or vehicle solution was slowly applied for skin sensitization. Seven days after skin sensitization, the mice were fasted overnight, anesthetized with isoflurane inhalation, and a 1 mL syringe equipped with a 3.5-F catheter, filled with oxazolone solution, was inserted carefully about 4 cm into the colon of the mouse. Following insertion, 50 μL of the oxazolone solution (1%, 1:1 ethanol:water formulation) was injected very slowly (over 30 sec using an injection pump) into the colon. The catheter was removed and the mice were held vertically (head down) for 2 min to ensure that the entire oxazolone solution remained inside the colon. Drug treatment (PO, BID or TID) or vehicle was initiated a day prior to the oxazolone intrarectal (IR) challenge. Two-day post oxazolone intrarectal challenge, the Disease Activity Index (DAI) was assessed by treatment-blinded experimenters for each mouse according to the criteria score: stool consistency score (0, normal; 2, loose; 4, diarrhea), gross bleeding score (0, absence; 2, blood tinged; 4, presence), and weight loss score (0, none; 1, 1%-5%; 2, 5%-10%; 3, 10%-20%; 4, more than 20%); DAI=average of (stool consistency score+gross bleeding score+weight loss score).
Selected compounds of the invention were tested in the assay. Efficacy in the model is evidenced by a decrease in DAI score as compared with the score from vehicle treated animals.

For data set [5], the system named is IL-4 induced STAT6 phosphorylation in THP-1 human monocytic cells. The following applies: THP-1 cells.
In the next data set the target is JAK2 (Homo sapiens (Human), UniProt O60674). It counts as biochemical. How it is done:
(§1) Assay 1: Biochemical JAK and Off-Target Kinase Assays
(§2) A panel of four LanthaScreen JAK biochemical assays (JAK1, 2, 3 and Tyk2) were carried in a common kinase reaction buffer (50 mM HEPES, pH 7.5, 0.01% Brij-35, 10 mM MgCl2, and 1 mM EGTA). Recombinant GST-tagged JAK enzymes and a GFP-tagged STAT1 peptide substrate were obtained from Life Technologies.
(§3) Serially diluted compounds were pre-incubated with each of the four JAK enzymes and the substrate in white 384-well microplates (Corning) at ambient temperature for 1 h. ATP was subsequently added to initiate the kinase reactions in 10 μL total volume, with 1% DMSO. […] Kinase reactions were allowed to proceed for 1 hour at ambient temperature before a 10 μL preparation of EDTA (10 mM final concentration) and Tb-anti-pSTAT1 (pTyr701) antibody (Life Technologies, 2 nM final concentration) in TR-FRET dilution buffer (Life Technologies) was added. The plates were allowed to incubate at ambient temperature for 1 h before being read on the EnVision reader (Perkin Elmer).
(§4) Results were expressed as pIC50 (negative logarithm of IC50) and subsequently converted to pKi (negative logarithm of dissociation constant, Ki) using the Cheng-Prusoff equation.

In another data set the target is TYK2 (Homo sapiens (Human), UniProt P29597). It counts as biochemical. How it is done:
as §1, §2, §3, §4

The target in a further data set is JAK1 (Homo sapiens (Human), UniProt P23458). It counts as biochemical. How it is done: as §1, §2, §3, §4
Data set [6] concerns IL-13 induced STAT6 phosphorylation in BEAS-2B human lung epithelial cells. The following applies: BEAS-2B cells.
The next data set has as its target JAK3 (Homo sapiens (Human), UniProt P52333). The data set is described as follows: Biochemical JAK assay (LanthaScreen), JAK3. How it is done: as §1, §2
Serially diluted compounds were pre-incubated with each of the four JAK enzymes and the substrate in white 384-well microplates (Corning) at ambient temperature for 1 h. ATP was subsequently added to initiate the kinase reactions in 10 μL total volume, with 1% DMSO. […] The plates were allowed to incubate at ambient temperature for 1 h before being read on the EnVision reader (Perkin Elmer).
as §4
(In TR-FRET formats the signal depends on donor and acceptor labels being close together.)

For data set [7] the following is noted: 5% to 90% relative humidity, room temperature; listed as Crystalline 3-(1R,3s,5S)-3-((7-((5-methyl-1H-pyrazol-3-yl)amino)-1,6-naphthyrid)). How it is done: A weighed sample was used and the humidity was lowest possible value (close to 0% RH) at the start of the analysis. The DMS analysis consisted of an initial drying step (0% RH) for 120 minutes, followed by two cycles of sorption and desorption with a scan rate of 5% RH/step over the humidity range of 5% RH to 90% RH. The DMS run was performed isothermally at 25° C.

Sequence of JAK1 (P23458 whole entry): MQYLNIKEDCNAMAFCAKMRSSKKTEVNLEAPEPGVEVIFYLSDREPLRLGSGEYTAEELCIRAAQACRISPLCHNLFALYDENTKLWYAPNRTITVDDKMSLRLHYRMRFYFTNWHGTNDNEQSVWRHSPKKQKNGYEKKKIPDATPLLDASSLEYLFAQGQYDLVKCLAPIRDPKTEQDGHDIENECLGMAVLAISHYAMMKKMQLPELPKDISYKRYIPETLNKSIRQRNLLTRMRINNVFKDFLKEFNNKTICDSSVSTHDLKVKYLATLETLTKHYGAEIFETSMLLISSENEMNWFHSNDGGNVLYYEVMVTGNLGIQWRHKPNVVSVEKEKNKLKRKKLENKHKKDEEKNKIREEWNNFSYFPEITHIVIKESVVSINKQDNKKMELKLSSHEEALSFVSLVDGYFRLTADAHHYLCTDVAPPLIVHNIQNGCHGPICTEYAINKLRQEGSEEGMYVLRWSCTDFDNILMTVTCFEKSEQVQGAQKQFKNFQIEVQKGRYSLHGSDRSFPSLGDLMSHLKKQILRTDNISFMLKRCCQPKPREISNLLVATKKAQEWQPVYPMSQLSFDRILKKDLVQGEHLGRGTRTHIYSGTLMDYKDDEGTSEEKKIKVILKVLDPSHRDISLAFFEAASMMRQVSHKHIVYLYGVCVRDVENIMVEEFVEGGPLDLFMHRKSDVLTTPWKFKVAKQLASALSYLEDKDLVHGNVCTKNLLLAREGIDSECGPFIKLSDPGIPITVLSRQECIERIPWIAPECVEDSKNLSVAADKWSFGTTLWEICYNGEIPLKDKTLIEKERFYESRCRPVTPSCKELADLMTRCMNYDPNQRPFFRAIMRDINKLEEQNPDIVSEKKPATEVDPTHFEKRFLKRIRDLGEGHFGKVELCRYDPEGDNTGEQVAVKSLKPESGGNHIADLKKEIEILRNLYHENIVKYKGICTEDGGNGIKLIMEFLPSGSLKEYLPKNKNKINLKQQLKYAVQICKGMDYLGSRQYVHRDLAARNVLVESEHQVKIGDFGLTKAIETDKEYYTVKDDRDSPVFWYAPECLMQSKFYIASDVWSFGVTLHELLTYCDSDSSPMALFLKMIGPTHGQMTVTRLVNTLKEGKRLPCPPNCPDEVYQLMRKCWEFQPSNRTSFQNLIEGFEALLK
Sequence of TYK2 (P29597 whole entry): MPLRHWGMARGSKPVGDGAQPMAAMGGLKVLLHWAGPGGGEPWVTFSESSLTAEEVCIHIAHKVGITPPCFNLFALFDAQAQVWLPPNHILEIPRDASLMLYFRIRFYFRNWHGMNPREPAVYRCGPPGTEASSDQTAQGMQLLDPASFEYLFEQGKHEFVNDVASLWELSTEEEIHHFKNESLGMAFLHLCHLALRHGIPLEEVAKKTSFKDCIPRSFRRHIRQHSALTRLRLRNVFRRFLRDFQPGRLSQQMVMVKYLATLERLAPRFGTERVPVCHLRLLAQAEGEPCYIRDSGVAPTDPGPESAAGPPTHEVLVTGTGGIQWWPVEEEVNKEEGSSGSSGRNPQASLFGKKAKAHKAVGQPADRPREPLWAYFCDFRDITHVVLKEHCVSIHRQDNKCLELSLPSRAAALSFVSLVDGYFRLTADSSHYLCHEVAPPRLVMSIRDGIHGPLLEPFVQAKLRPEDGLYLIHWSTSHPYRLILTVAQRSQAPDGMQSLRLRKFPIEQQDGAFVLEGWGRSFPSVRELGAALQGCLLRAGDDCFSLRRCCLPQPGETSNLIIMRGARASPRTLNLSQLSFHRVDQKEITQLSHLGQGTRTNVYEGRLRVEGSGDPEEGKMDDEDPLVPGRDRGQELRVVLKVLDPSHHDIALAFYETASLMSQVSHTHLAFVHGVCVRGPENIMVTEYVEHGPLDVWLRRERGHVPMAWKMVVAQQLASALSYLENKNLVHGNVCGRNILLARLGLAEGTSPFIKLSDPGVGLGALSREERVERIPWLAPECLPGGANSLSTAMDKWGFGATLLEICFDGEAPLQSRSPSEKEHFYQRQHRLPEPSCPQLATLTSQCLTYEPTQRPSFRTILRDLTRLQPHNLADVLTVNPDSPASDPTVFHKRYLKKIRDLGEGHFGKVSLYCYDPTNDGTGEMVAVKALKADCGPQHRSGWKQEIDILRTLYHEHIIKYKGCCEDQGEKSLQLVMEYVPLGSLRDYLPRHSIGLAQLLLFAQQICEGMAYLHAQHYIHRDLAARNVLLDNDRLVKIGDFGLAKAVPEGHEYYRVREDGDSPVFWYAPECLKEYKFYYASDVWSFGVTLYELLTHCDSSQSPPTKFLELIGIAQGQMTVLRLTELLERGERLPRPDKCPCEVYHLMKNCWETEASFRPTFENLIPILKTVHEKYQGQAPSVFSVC
Sequence of JAK2 (O60674 whole entry): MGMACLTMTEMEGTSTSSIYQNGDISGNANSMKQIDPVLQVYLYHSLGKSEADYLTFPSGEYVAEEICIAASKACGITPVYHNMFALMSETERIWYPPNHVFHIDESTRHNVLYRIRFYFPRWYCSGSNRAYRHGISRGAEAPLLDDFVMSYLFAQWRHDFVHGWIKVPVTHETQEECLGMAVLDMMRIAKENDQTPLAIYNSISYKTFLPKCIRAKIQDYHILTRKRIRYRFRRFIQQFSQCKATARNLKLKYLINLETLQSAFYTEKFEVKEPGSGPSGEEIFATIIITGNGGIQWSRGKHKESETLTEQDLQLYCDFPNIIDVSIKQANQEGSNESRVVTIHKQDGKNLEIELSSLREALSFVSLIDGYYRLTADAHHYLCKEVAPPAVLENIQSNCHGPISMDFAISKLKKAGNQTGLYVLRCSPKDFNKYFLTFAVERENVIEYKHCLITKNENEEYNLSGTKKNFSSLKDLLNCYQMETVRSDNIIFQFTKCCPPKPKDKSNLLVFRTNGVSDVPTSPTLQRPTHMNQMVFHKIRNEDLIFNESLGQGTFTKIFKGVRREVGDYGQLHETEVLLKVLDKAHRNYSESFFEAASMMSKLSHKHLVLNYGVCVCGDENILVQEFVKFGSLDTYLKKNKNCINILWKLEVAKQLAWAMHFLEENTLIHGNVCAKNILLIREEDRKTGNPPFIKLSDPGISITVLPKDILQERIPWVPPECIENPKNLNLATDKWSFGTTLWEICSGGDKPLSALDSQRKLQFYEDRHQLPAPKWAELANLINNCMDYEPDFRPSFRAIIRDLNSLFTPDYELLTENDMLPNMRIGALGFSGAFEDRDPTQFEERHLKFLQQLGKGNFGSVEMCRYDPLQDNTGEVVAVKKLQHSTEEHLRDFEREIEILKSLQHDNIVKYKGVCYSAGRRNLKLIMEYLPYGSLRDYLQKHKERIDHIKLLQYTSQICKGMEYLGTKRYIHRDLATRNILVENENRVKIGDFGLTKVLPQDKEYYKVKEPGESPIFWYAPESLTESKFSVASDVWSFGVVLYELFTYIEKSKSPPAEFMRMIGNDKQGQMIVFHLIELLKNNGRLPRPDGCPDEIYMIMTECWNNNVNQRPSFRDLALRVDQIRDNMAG
Sequence of JAK3 (P52333 whole entry): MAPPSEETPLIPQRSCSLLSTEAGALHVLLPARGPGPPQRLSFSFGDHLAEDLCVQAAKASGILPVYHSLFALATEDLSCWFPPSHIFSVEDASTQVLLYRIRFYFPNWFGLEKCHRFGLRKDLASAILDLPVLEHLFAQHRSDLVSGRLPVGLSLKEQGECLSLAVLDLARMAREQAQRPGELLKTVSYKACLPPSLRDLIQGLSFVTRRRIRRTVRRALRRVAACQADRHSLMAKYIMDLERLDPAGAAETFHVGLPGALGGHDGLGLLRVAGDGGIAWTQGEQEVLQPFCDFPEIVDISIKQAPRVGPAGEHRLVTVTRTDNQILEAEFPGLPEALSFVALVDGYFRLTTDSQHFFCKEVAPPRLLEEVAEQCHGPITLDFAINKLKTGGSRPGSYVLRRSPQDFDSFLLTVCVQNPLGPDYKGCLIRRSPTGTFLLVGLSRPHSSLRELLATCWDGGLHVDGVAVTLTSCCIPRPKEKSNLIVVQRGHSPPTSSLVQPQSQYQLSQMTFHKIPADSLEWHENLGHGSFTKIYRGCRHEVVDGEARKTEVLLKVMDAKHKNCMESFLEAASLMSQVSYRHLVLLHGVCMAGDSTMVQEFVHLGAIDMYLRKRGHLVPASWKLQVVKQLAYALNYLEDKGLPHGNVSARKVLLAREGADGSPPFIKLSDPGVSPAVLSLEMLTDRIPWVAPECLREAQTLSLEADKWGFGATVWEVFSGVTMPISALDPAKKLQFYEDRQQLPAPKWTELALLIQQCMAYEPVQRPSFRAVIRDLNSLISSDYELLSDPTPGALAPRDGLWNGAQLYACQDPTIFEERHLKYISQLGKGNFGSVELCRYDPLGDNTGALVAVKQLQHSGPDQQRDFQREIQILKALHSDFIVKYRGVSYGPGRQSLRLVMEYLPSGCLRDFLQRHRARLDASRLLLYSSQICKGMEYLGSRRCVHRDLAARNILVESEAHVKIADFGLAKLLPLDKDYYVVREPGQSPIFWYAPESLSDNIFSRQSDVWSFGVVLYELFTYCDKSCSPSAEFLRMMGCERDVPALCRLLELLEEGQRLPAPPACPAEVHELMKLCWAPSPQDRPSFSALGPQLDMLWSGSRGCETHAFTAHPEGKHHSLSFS

With `Cc1cc(Nc2cc3ncccc3c(N[C@@H]3C[C@H]4CC[C@@H](C3)N4CCC#N)n2)n[nH]1` [Example 1, 3-((1R,3s,5S)-3-((7-((5-methyl-1H-pyrazol-3-yl)amino)-1,6-naphthyridin-5-yl)amino)-8-azabicyclo[3.2.1]octan-8-yl)propanenitrile], in [1] (PO BID doses up to 100 mg/kg), the “splenic NK cell counts” value is “unaffected”. In addition, in data set [1], the “treatment effect on B and T cell populations” value is recorded as “No treatment effect”. Besides, the “exposure throughout the gastrointestinal tract vs exposure in plasma” value in [2] is reported as “significantly higher exposure”. Also, in data set [3], the oral bioavailability result is on record as “very low”. Further, in data set [4], the “activity in the oxazolone-induced colitis model” value is recorded as “demonstrated activity”. Besides, the “decrease in DAI score as compared with vehicle treated animals” value in [4] (PO, 1, 3, and/or 10 mg/kg BID (doses up to 10 mg/kg BID)) is given as “statistically significant decrease”.

On to `Cc1cc(Nc2cc3ncccc3c(N[C@@H]3C[C@H]4CC[C@@H](C3)N4C(=O)C3(C#N)CC3)n2)n[nH]1` [Example 2-8], for which, in [5], the “THP-1 IL4 pIC50” value was “B (B represents a pEC50 value between 6.7 and 7.5 (EC50 between 200 nM and 32 nM))”. The “JAK 2 (pKi)” value on JAK2 is “B (B represents a pKi value between 9 and 10 (Ki between 1 nM and 0.1 nM))”. The “Tyk 2 (pKi)” value at TYK2 is “C (C represents a pKi value between 7 and 9 (Ki between 100 nM and 1 nM))”. Also, the “JAK 1 (pKi)” value on JAK1 is “B (B represents a pKi value between 9 and 10 (Ki between 1 nM and 0.1 nM))”.

As to `Cc1cc(Nc2cc3ncccc3c(N[C@@H]3C[C@H]4CCC[C@@H](C3)N4C(=O)C3(C#N)CC3)n2)n[nH]1` [Example 2-20], in data set [6], the “BEAS2B pIC50” value is “A (A represents a pEC50 value ≥7.5 (EC50≤32 nM))”. In [5], the “THP-1 IL4 pIC50” value is on record as “A (A represents a pEC50 value ≥7.5 (EC50≤32 nM))”. In addition, at JAK2, the “JAK 2 (pKi)” value is “B (B represents a pKi value between 9 and 10 (Ki between 1 nM and 0.1 nM))”. Further, the “Tyk 2 (pKi)” value on TYK2 is “C (C represents a pKi value between 7 and 9 (Ki between 100 nM and 1 nM))”. Moreover, the “JAK 1 (pKi)” value on JAK1 was “B (B represents a pKi value between 9 and 10 (Ki between 1 nM and 0.1 nM))”.

Take `COCC1CCCN1S(=O)(=O)N1[C@@H]2CCC[C@H]1C[C@H](Nc1nc(Nc3cc(C)[nH]n3)cc3ncccc13)C2` (stereo partly drawn) [Example 4-28]: the “JAK 3 (pKi)” value at JAK3 is “C (C represents a pKi value between 7 and 9 (Ki between 100 nM and 1 nM))”. In data set [5], the “THP-1 IL4 pIC50” value is reported as “A (A represents a pEC50 value ≥7.5 (EC50≤32 nM))”. Further, on JAK2, the “JAK 2 (pKi)” value was “B (B represents a pKi value between 9 and 10 (Ki between 1 nM and 0.1 nM))”. Further, the “Tyk 2 (pKi)” value at TYK2 is “B (B represents a pKi value between 9 and 10 (Ki between 1 nM and 0.1 nM))”.

Consider `Cc1cnc2cc(Nc3cc(C)[nH]n3)nc(N[C@@H]3C[C@H]4CCC[C@@H](C3)N4S(C)(=O)=O)c2c1` [Example 6-8], for which the “JAK 3 (pKi)” value on JAK3 was “B (B represents a pKi value between 9 and 10 (Ki between 1 nM and 0.1 nM))”. Also, in data set [6], the “BEAS2B pIC50” value is “A (A represents a pEC50 value ≥7.5 (EC50≤32 nM))”. Besides, the “THP-1 IL4 pIC50” value in [5] was “A (A represents a pEC50 value ≥7.5 (EC50≤32 nM))”. For the same compound, the “Tyk 2 (pKi)” value on TYK2 is “B (B represents a pKi value between 9 and 10 (Ki between 1 nM and 0.1 nM))”. In addition, the “JAK 1 (pKi)” value at JAK1 is “B (B represents a pKi value between 9 and 10 (Ki between 1 nM and 0.1 nM))”.

As for `Cc1cc(Nc2cc3ncccc3c(N[C@@H]3C[C@H]4CC[C@@H](C3)N4CCC#N)n2)n[nH]1` [Form I, 3-((1R,3s,5S)-3-((7-((5-methyl-1H-pyrazol-3-yl)amino)-1,6-naphthyridin-5-yl)amino)-8-azabicyclo[3.2.1]octan-8-yl)propanenitrile], in data set [7], the “weight gain / weight change on exposure to humidity” value was “less than 0.15%”.

For `C[C@@H]1CCN(C(=O)CC#N)C[C@@H]1N(C)c1ncnc2[nH]ccc12` [tofacitinib, reference compound], in data set [1] (30 mg/kg PO BID), the “splenic NK cell counts” value is “significantly decreased”. Further, the “treatment effect on B and T cell populations” value in data set [1] was “No treatment effect”.
